Drawing on US20230265105A1, “MACROCYCLIC 7-PYRAZOL-5-YL-INDOLE DERIVATIVES AS INHIBITORS OF MCL-1” (Janssen Pharmaceutica NV, priority 2020, published 2023), this text covers AC50 and Ki for six molecules.

For assay [1], the system named is MOLP-8 human multiple myeloma cell line. Put plainly: MOLP8 Caspase-Glo 3/7 apoptosis induction assay. It is filed as cell-based. The settings on record: MOLP-8 cells, 2 hours at 37° C.; 30 μM highest conc.; averaged over all runs on all batches. An excerpt: MCL-1 is a regulator of apoptosis and is highly over-expressed in tumor cells that escape cell death. The assay evaluates the cellular potency of small-molecule compounds targeting regulators of the apoptosis pathway, primarily MCL-1, Bfl-1, Bcl-2, and other proteins of the Bcl-2 family. Protein-protein inhibitors disrupting the interaction of anti-apoptotic regulators with BH3-domain proteins initiate apoptosis.
The Caspase-Glo® 3/7 Assay is a luminescent assay that measures caspase-3 and -7 activities in purified enzyme preparations or cultures of adherent or suspension cells. The assay provides a proluminescent caspase-3/7 substrate, which contains the tetrapeptide sequence DEVD. This substrate is cleaved to release aminoluciferin, a substrate of luciferase used in the production of light. Addition of the single Caspase-Glo® 3/7 Reagent in an “add-mix-measure” format results in cell lysis, followed by caspase cleavage of the substrate and generation of a “glow-type” luminescent signal.
This assay uses the MOLP-8 human multiple myeloma cell line, which is sensitive to MCL-1 inhibition.
Cell cultures were maintained between 0.2 and 2.0×10^6 cells/mL. The cells were harvested by collection in 50 mL conical tubes. The cells were then pelleted at 500 g for 5 mins before removing supernatant and resuspension in fresh pre-warmed culture medium. The cells were counted and diluted as needed.
The assay reagent was prepared by transferring the buffer solution to the substrate vial and mixing. The solution may be stored for up to 1 week at 4° C. with negligible loss of signal.
Compounds were delivered in assay-ready plates (Proxiplate) and stored at −20° C.
Assays always include 1 reference compound plate containing reference compounds. The plates were spotted with 40 nL of compounds (0.5% DMSO final in cells; serial dilution; 30 μM highest conc. 1/3 dilution, 10 doses, duplicates). The compounds were used at room temperature and 4 μL of pre-warmed media was added to all wells except column 2 and 23. The negative control was prepared by adding 1% DMSO in media. The positive control was prepared by adding the appropriate positive control compound in final concentration of 60 μM in media. The plate was prepared by adding 4 μL negative control to column 23, 4 μL positive control to column 2 and 4 μL cell suspension to all wells in the plate. The plate with cells was then incubated at 37° C. for 2 hours. The assay signal reagent is the Caspase-Glo solution described above, and 8 μL was added to all wells. The plates were then sealed and measured after 30 minutes.
The activity of a test compound was calculated as percent change in apoptosis induction as follows:
[formula] [formula] % Effect (AC50)=100−((sample−LC)/(HC−LC))*100
% Control=(sample/HC)*100
% Control min=(sample−LC)/(HC−LC)*100

Assay [2] addresses Myeloid Cell Leukemia 1 (Mcl-1) (Homo sapiens, UniProt Q07820). Put plainly: Terbium labeled Mcl-1 HTRF binding assay with Cy5-labeled BIM BH3 peptide. The settings on record: Ki=IC50/(1+[L]/Kd), [L]=8 nM, Kd=10 nM, 60 min incubation at room temperature, read-out: Tb-MCL1 Ki. The procedure:
Terbium labeled Myeloid Cell Leukemia 1 (Mcl-1) homogeneous time-resolved fluorescence (HTRF) binding assay utilizing the BIM BH3 peptide (H2N-(C/Cy5Mal) WIAQELRRIGDEFN-OH) as the binding partner for Mcl-1.
This assay evaluated inhibition of the BH3 domain: Mcl-1 interaction by measuring the displacement of Cy5-labeled BIM BH3 peptide (H2N—(C/Cy5Mal) WIAQELRRIGDEFN-OH) in the HTRF assay format.
The following assay and stock buffers were prepared for use in the assay: (a) Stock buffer: 10 mM Tris-HCl, pH=7.5+150 mM NaCl, filtered, sterilized, and stored at 4° C.; and (b) 1×assay buffer, where the following ingredients were added fresh to stock buffer: 2 mM dithiothreitol (DTT), 0.0025% Tween-20, 0.1 mg/mL bovine serum albumin (BSA). The 1×Tb-Mcl-1+Cy5 Bim peptide solution was prepared by diluting the protein stock solution using the 1×assay buffer (b) to 25 pM Tb-Mcl-1 and 8 nM Cy5 Bim peptide.
Using the Acoustic ECHO, 100 nL of 100×test compound(s) were dispensed into individual wells of a white 384-well Perkin Elmer Proxiplate, for a final compound concentration of 1× and final DMSO concentration of 1%. Inhibitor control and neutral control (NC, 100 nL of 100% DMSO) were stamped into columns 23 and 24 of assay plate, respectively. Into each well of the plate was then dispensed 10 μL of the 1×Tb-Mcl-1+Cy5 Bim peptide solution. The plate was centrifuged with a cover plate at 1000 rpm for 1 minute, then incubated for 60 minutes at room temperature with plates covered.
The TR-FRET signal was read on an BMG PHERAStar FSX MicroPlate Reader at room temperature using the HTRF optic module (HTRF: excitation: 337 nm, light source: laser, emission A: 665 nm, emission B: 620 nm, integration start: 60 μs, integration time: 400 μs).
The BMG PHERAStar FSX MicroPlate Reader was used to measure fluorescence intensity at two emission wavelengths—665 nm and 620 nm—and report relative fluorescence units (RFU) for both emissions, as well as a ratio of the emissions (665 nm/620 nm)*10,000. The RFU values were normalized to percent inhibition as follows:
% inhibition=(((NC−IC)−(compound−IC))/(NC−IC))*100
where IC (inhibitor control, low signal)=mean signal of 1×Tb-MCl-1+Cy5 Bim peptide+inhibitor control or 100% inhibition of Mcl-1; NC (neutral control, high signal)=mean signal 1×Tb-MCl-1+Cy5 Bim peptide with DMSO only or 0% inhibition
An 11-point dose response curve was generated to determine IC50 values (using GenData) based on the following equation:
Y=Bottom+(Top−Bottom)/(1+10^((log IC50−X)*HillSlope))
where Y=% inhibition in the presence of X inhibitor concentration; Top=100% inhibition derived from the IC (mean signal of Mcl-1+inhibitor control); Bottom=0% inhibition derived from the NC (mean signal of Mcl-1+DMSO); Hillslope=Hill coefficient; and IC50=concentration of compound with 50% inhibition in relation to top/neutral control (NC).
In this assay [L]=8 nM and Kd=10 nM
Representative compounds of the present invention were tested according to the procedure as described above, with results as listed in the Table below (n.d. means not determined).
On the technique in general: Time-resolved FRET reads energy transfer from a long-lived donor to a nearby acceptor.

Each structure is given as a SMILES string.

Myeloid Cell Leukemia 1 (Mcl-1), sequence (Q07820 whole entry): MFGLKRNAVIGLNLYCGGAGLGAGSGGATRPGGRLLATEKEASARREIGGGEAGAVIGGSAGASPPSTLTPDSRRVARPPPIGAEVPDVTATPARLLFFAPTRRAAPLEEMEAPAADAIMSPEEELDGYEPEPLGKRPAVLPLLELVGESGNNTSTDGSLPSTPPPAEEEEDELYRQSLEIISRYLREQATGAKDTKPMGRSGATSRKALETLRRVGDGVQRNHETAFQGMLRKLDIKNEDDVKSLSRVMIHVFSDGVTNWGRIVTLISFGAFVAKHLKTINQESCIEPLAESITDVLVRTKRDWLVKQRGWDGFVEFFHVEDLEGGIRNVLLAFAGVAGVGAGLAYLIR

In general, AC50 refers to the midpoint of the concentration-response curve, whichever way the signal moves. A high value points to activity only at high concentration. What is called Ki is the equilibrium dissociation constant of an inhibitor or competing ligand from its target. Regarding `Cc1nn(C)c2c1CSCc1cc(n(C)n1)CCc1cc(c3ccc(F)cc3c1)OCCCc1c(C(=O)O)n(C)c3c-2c(Cl)ccc13` (single isomer, unassigned) [Compound 10a], in assay [1], the concentration at half-maximal activity (AC50) turned out to be 68 nM. In addition, the inhibition constant Ki in assay [2] came out at 0.041 nM.

As to `Cn1nc2cc1CCc1cc(c3ccc(F)cc3c1)OCCCc1c(C(=O)O)n(CCN3CCOCC3)c3c(c(Cl)ccc13)-c1c(cnn1C)CSC2` (single isomer, unassigned) [Compound 21], half-maximal activity in assay [1] (AC50) was put at 82 nM. Moreover, in assay [2], the Ki worked out at 0.02 nM.

Molecule `CCn1c(C(=O)O)c2c3ccc(Cl)c(c31)-c1c(cnn1C)CCCc1cc(n(C)n1)CCc1cc(c3ccc(F)cc3c1)OCCC2` (single isomer, unassigned) [Compound 14] yielded an AC50 in assay [1] of 3460 nM. Moreover, the Ki in assay [2] worked out at 6.15 nM.

In turn, `COCCOCc1nn(C)c2c1CSCc1cc(n(C)n1)CCc1cc(c3ccccc3c1)OCCCc1c(C(=O)O)n(C)c3c-2c(Cl)ccc13` (single isomer, unassigned) [Compound 4] returned an AC50 in assay [1] of 46 nM. For the same molecule, the Ki in assay [2] was found to be 0.023 nM.

In assay [1], `COCCOCCn1c(C(=O)O)c2c3ccc(Cl)c(c31)-c1c(cnn1C)CSCc1cc(n(C)n1)CCc1cc(c3ccc(F)cc3c1)OCCC2` (single isomer, unassigned) [Compound 22] returned an AC50 of 22 nM. For the same molecule, in assay [2], the inhibition constant Ki came to 0.029 nM.

`Cc1nn(C)c2c1CSCc1cc(n(C)n1)CCc1cc(c3ccccc3c1)OCCCc1c(C(=O)O)n(C)c3c-2c(Cl)ccc13` (single isomer, unassigned) [Compound 12a] had an AC50 in assay [1] of 29 nM. In assay [2], the Ki was 0.031 nM.
